Source: patent US20060035291A1, “Method of detecting cellular immunity and application thereof to drugs” (priority 2001, published 2006)

Tested on: HLA-A2 restricted antigen peptide-specific T cells (CTL precursors) in PBMCs
Assay: IFN-γ production (ELISA) by peptide-stimulated HLA-A2 positive PBMCs in response to peptide-sensitized T2 cells
Format: cell-based, human
Set-up: production level of IFN-γ: unit not given here
Details: for production level of IFN-γ: average of 4, HIV peptide background subtracted; for IFN-γ production 1st well / IFN-γ production 2nd well / IFN-γ production 3rd well / IFN-γ production 4th well: before vaccination
[1] = HD6, HLA-A2 positive healthy donor
[2] = HD7, HLA-A2 positive healthy donor
[3] = HD8, HLA-A2 positive healthy donor
[4] = HD9, HLA-A2 positive healthy donor
[5] = HD10, HLA-A2 positive healthy donor
[6] = HLA-A2 positive cervical cancer patient, response to HIV-T2 cells subtracted
[7] = HLA-A2 positive prostate cancer patient
[8] = Pt. 11, HLA-A2 positive pancreatic cancer, ELISA sensitivity limit 10 pg/ml
[9] = Pt. 12, HLA-A2 positive pancreatic cancer, ELISA sensitivity limit 10 pg/ml
[10] = Pt. 13, HLA-A2 positive pancreatic cancer, ELISA sensitivity limit 10 pg/ml
[11] = Pt. 14, HLA-A2 positive pancreatic cancer, ELISA sensitivity limit 10 pg/ml
[12] = Pt. 15, HLA-A2 positive pancreatic cancer, ELISA sensitivity limit 10 pg/ml

| Substance | production level of IFN-γ [1] | production level of IFN-γ [2] | production level of IFN-γ [3] | production level of IFN-γ [4] | production level of IFN-γ [5] | IFN-γ production 1st well [6] | IFN-γ production 2nd well [6] | IFN-γ production 3rd well [6] | IFN-γ production 4th well [6] | IFN-γ production 1st well [7] | IFN-γ production 2nd well [7] | IFN-γ production 3rd well [7] | IFN-γ production 4th well [7] | production level of IFN-γ [8] | production level of IFN-γ [9] | production level of IFN-γ [10] | production level of IFN-γ [11] | production level of IFN-γ [12] |
| --- | --- | --- | --- | --- | --- | --- | --- | --- | --- | --- | --- | --- | --- | --- | --- | --- | --- | --- |
| ALVEFEDVL [HNRPL140] | 967 | 0 | 0 | 0 | 99 | 24 pg/well | <0 pg/well | 13 pg/well | 40 pg/well | 16 pg/well | <0 pg/well | <0 pg/well | <0 pg/well | 0 | 63 | 0 | 317 | 39 |
| ASLDSDPWV [WHSC2103] | 0 | 0 | 0 | 0 | 96 | 74 pg/well | <0 pg/well | <0 pg/well | <0 pg/well | 3 pg/well | 0 pg/well | <0 pg/well | <0 pg/well | 186 | 154 | 0 | 38 | 0 |
| DLLSHAFFA [ppMAPkkk432] | 0 | 0 | 0 | 0 | 73 | 137 pg/well | 12 pg/well | <0 pg/well | <0 pg/well | 43 pg/well | 64 pg/well | <0 pg/well | 5 pg/well | 42 | 57 | 58 | 0 | 0 |
| DVWSFGILL [lck422] | 0 | 11 | 23 | 60 | 26 | <0 pg/well | <0 pg/well | <0 pg/well | 8 pg/well | 1 pg/well | <0 pg/well | <0 pg/well | <0 pg/well | 20 | 81 | 10 | 71 | 0 |
| GLLFLHTRT [ppMAPkkk294] | 0 | 58 | 0 | 0 | 86 | 133 pg/well | <0 pg/well | <0 pg/well | <0 pg/well | <0 pg/well | 34 pg/well | <0 pg/well | <0 pg/well | 179 | 170 | 0 | 0 | 0 |
| ILGELREKV [WHSC2141] | 0 | 0 | 0 | 12 | 260 | 10 pg/well | <0 pg/well | <0 pg/well | <0 pg/well | 6 pg/well | 14 pg/well | <0 pg/well | 9 pg/well | 0 | 47 | 0 | 659 | 38 |
| KLKHYGPGWV [CypB129] | 0 | 0 | 31 | 29 | 6 |  |  |  |  |  |  |  |  | 43 | 0 | 0 | 0 | 0 |
| KLVERLGAA [lck246] | 0 | 21 | 29 | 26 | 0 | 19 pg/well | <0 pg/well | <0 pg/well | <0 pg/well | <0 pg/well | <0 pg/well | <0 pg/well | <0 pg/well | 74 | 16 | 24 | 0 | 0 |
| LIADFLSGL [UBE2V85] | 0 | 0 | 0 | 0 | 1226 | 7 pg/well | 34 pg/well | <0 pg/well | <0 pg/well | 0 pg/well | <0 pg/well | 7 pg/well | <0 pg/well | 0 | 1 | 13 | 7 | 43 |
| LLQAEAPRL [SART3302] | 0 | 0 | 51 | 70 | 0 | <0 pg/well | <0 pg/well | 8 pg/well | <0 pg/well | <0 pg/well | <0 pg/well | <0 pg/well | <0 pg/well | 32 | 0 | 226 | 8 | 0 |
| NVLHFFNAPL [HNRPL501] | 0 | 0 | 0 | 0 | 0 | 24 pg/well | <0 pg/well | <0 pg/well | 18 pg/well | <0 pg/well | 7 pg/well | <0 pg/well | <0 pg/well | 0 | 0 | 14 | 0 | 13 |
| RLAEYQAYI [SART3309] | 0 | 127 | 30 | 25 | 0 | <0 pg/well | <0 pg/well | 9 pg/well | 28 pg/well | <0 pg/well | <0 pg/well | <0 pg/well | <0 pg/well | 116 | 0 | 19 | 3 | 27 |
| RLQEWCSVI [UBE2V43] | 980 | 31 | 0 | 3 | 56 | 13 pg/well | 11 pg/well | <0 pg/well | <0 pg/well | <0 pg/well | <0 pg/well | <0 pg/well | <0 pg/well | 0 | 0 | 0 | 7 | 0 |
| VLEGMEW [CypB172] |  |  |  |  |  | 22 pg/well | <0 pg/well | <0 pg/well | <0 pg/well | <0 pg/well | 0 pg/well | <0 pg/well | <0 pg/well |  |  |  |  |  |
